# Experimental data published in patent US4731383A, “Aminoguanidine compounds, their compositions and pharmaceutical uses” (Biogal Gyogyszergyar, priority 1983, dated 1988).
# Where a name gives a salt, the structure may show the parent alone. Read-outs that look alike come from different tables or passages of the source.
# Experiments:
# [1] = tested on: mice treated with aconitin; assay: animal or person; type: in vivo; conditions: Mus musculus, read-out: Delay in the appearance time of arrhythmia
# Procedure: Arrhytmia was induced in male mice, weighing 20 to 25 g, by treating them continuously, at a rate of 0.2 ml/min with an infusion containing 5 μg/kg of aconitin. The test compound was administered to the animals either intraperitoneally (by injecting it into the abdominal cavity) 15 minutes before the start of the infusion, or orally 60 minutes before the onset of the infusion. The time of the appearance of arrhythmia was recorded, and the percentage of delay was calculated in relation to the data obtained in the controls, pretreated with 0.9 percent sodium chloride solution only [B. Vargaftig and J. L. Coignet: European J. of Pharmacol. 6, 49 to 55 (1969); N. K. Dadkar and B. K. Bhattachariya: Arch. Int. Pharmacodyn. 212, 297 to 301 (1974); D. U. Nwagwu, T. L. Holcslaw and S. J. Stohs: Arch. Int. Pharmacodyn. 229, 219 to 226 (1977)].
# [2] = tested on: right ventricle of isolated rabbit heart; assay: Electrophysiological tests in the isolated rabbit heart, right ventricle; conditions: n = 4
# Procedure: (§1) Hearts of rabbits of both sexes, weighing 1 to 2 kg, were removed, the right and left auricles and a segment of the right ventricle were prepared and placed into a vessel filled with nutrient solution. Bipolar platinum electrodes (a stimulating electrode and a lead electrode) were placed on the organ strips, and the electric stimulus threshold and the speed of impulse conduction were measured. The effective refractory period was determined on the basis of the maximal driving frequency.
# [3] = tested on: left auricle of isolated rabbit heart; assay: Electrophysiological tests in the isolated rabbit heart, left auricle; conditions: for Change in conduction time / Change in electric stimulus threshold / Change in max. driving frequency: n = 4
# Procedure: as §1
# in vivo = conditions: mouse
smiles,measurement,setting,value
"Cc1ccccc1NNC(=N)N(C)C [Example 1, 1-(2-Methylphenyl)-4,4-dimethyl-aminoguanidine hydrochloride]",change in vivo at 25 mg/kg,[1]; ip,164%
same,change in vivo at 50 mg/kg,[1]; ip,174%
same,change in vivo at 50 mg/kg,[1]; po,102%
same,change in vivo at 100 mg/kg,[1]; po,197%
same,Change in conduction time,[2]; 0.25 mg/l,+0.2%
same,Change in electric stimulus threshold,[2]; 0.25 mg/l,0%
same,Change in max. driving frequency,[2]; 0.25 mg/l,-0.88%
same,Change in conduction time,[2]; 0.5 mg/l,+3.31%
same,Change in electric stimulus threshold,[2]; 0.5 mg/l,-1.43%
same,Change in max. driving frequency,[2]; 0.5 mg/l,-0.38%
same,Change in conduction time,[2]; 1.0 mg/l,+14.84%
same,Change in electric stimulus threshold,[2]; 1.0 mg/l,+5.42%
same,Change in max. driving frequency,[2]; 1.0 mg/l,-1.82%
same,Change in conduction time,[2]; 2.0 mg/l,+36.75%
same,Change in electric stimulus threshold,[2]; 2.0 mg/l,+20.6%
same,Change in max. driving frequency,[2]; 2.0 mg/l,-10.33%
same,Change in conduction time,[2]; 4.0 mg/l,+52.45%
same,Change in electric stimulus threshold,[2]; 4.0 mg/l,+23.6%
same,Change in max. driving frequency,[2]; 4.0 mg/l,-17.43%
same,Change in conduction time,[2]; 8.0 mg/l,+77.82%
same,Change in electric stimulus threshold,[2]; 8.0 mg/l,+35.8%
same,Change in max. driving frequency,[2]; 8.0 mg/l,-36.8%
same,Change in conduction time,[3]; 0.25 mg/l,+0.54%
same,Change in electric stimulus threshold,[3]; 0.25 mg/l,0%
same,Change in max. driving frequency,[3]; 0.25 mg/l,-0.08%
same,Change in conduction time,[3]; 0.5 mg/l,+8.66%
same,Change in electric stimulus threshold,[3]; 0.5 mg/l,-1.82%
same,Change in max. driving frequency,[3]; 0.5 mg/l,-0.98%
same,Change in conduction time,[3]; 1.0 mg/l,+12.55%
same,Change in electric stimulus threshold,[3]; 1.0 mg/l,-11.8%
same,Change in max. driving frequency,[3]; 1.0 mg/l,-9.21%
same,Change in conduction time,[3]; 2.0 mg/l,+28.42%
same,Change in electric stimulus threshold,[3]; 2.0 mg/l,+30.84%
same,Change in max. driving frequency,[3]; 2.0 mg/l,-17.09%
same,Change in conduction time,[3]; 4.0 mg/l,+47.87%
same,Change in electric stimulus threshold,[3]; 4.0 mg/l,+43.4%
same,Change in max. driving frequency,[3]; 4.0 mg/l,-28.82%
same,Change in conduction time,[3]; 8.0 mg/l,+114.03%
same,Change in electric stimulus threshold,[3]; 8.0 mg/l,+83.9%
same,Change in max. driving frequency,[3]; 8.0 mg/l,-59.1%
same,inhibition at 0.25 µg/mL,"[3]; Oryctolagus cuniculus, 0.25 mg/l, n = 4, read-out: Contractility",2.61%
same,inhibition at 0.5 µg/mL,"[3]; Oryctolagus cuniculus, 0.5 mg/l, n = 4, read-out: Contractility",7.57%
same,inhibition at 1 µg/mL,"[3]; Oryctolagus cuniculus, 1.0 mg/l, n = 4, read-out: Contractility",15.5%
same,inhibition at 2 µg/mL,"[3]; Oryctolagus cuniculus, 2.0 mg/l, n = 4, read-out: Contractility",18.1%
same,inhibition at 4 µg/mL,"[3]; Oryctolagus cuniculus, 4.0 mg/l, n = 4, read-out: Contractility",27.1%
same,inhibition at 8 µg/mL,"[3]; Oryctolagus cuniculus, 8.0 mg/l, n = 4, read-out: Contractility",37.9%
same,LD50,in vivo; ip,81 mg/kg
same,LD50,in vivo; po,203 mg/kg
